{"source": "paper PMC5593639", "about": "“NSC30049 inhibits Chk1 pathway in 5-FU-resistant CRC bulk and stem cell populations” (Oncotarget, 2017)", "key": {"[1]": {"tested_on": "HCoEpiC normal colonic epithelial cell line", "test": "Cell survival (MTT assay), HCoEpiC", "assay_type": "cell-based", "conditions": "Homo sapiens, drug alone, 48 h", "procedure": "(§1) The survival of cells was determined by MTT (3-(4,5-Dimethylthiazol-2yl-)-2,5-diphenyl tetrazolium bromide) assay (ATCC, Manassas, VA, USA). In principle, the viable cell number is directly proportional to the purple formazan color of the reduced MTT dye, which can be quantitatively measured by spectrophotometry. Briefly, 1,500 cells were plated in quadruplets in 96-well flat-bottom tissue culture plates. After treatment with compounds for certain periods as described in respective figure legends, 10 μl of MTT reagent was added to each well and incubated at 37°C for 4 h to allow the formation of purple color crystals of formazan. In total, 100 μl of detergent solution was added to each well, and the reaction mixture was incubated in dark for 2–4 h at room temperature. The developed color density was then measured spectrophotometrically at 570 nm using the POLARstar Omega micro-plate reader (BMG Labtech, Inc., Cary, NC, USA)."}, "SW480 cells": {"tested_on": "SW480 cells", "test": "Cell survival (MTT assay), SW480", "assay_type": "cell-based", "conditions": "Homo sapiens, drug alone, 48 h", "procedure": "as §1"}, "RKO cells": {"tested_on": "RKO cells", "test": "Cell survival (MTT assay), RKO", "assay_type": "cell-based", "conditions": "Homo sapiens, drug alone, 48 h", "procedure": "as §1"}, "[2]": {"tested_on": "FOLFOX-resistant-HT29 cells", "test": "Cell survival (MTT assay), FOLFOX-resistant-HT29", "assay_type": "cell-based", "conditions": "Homo sapiens, FOLFOX-resistant HT-29, 48 h", "procedure": "In some experiments, 5-FU, leucovorin and oxaliplatin (FOLFOX)-resistant-HCT-116 and FOLFOX-resistant-HT29 cells were used. These cells were obtained from Dr. Adhip P. Majumdar (John D. Dingell VA Medical Center, Detroit, MI). These cells were generated by exposure to clinically relevant doses and schedules. The exposing schedule was for 12 cycles; each cycle lasted for one week. Briefly, the cells were first exposed to FOLFOX (25 μM 5-FU and 0.625 μM oxaliplatin) for 72 hours. The surviving cells were then cultured in normal medium without the drugs for 4 to 5 days. This cycle was repeated 12 times. The surviving cells were then split and exposed to higher doses of FOLFOX (50 μM 5-FU + 1.25 μM oxaliplatin or 100 μM 5-FU + 2.5 μM oxaliplatin) for 2 to 3 days per week for approximately 4 weeks. […]\nThe survival of cells was determined by MTT (3-(4,5-Dimethylthiazol-2yl-)-2,5-diphenyl tetrazolium bromide) assay (ATCC, Manassas, VA, USA). In principle, the viable cell number is directly proportional to the purple formazan color of the reduced MTT dye, which can be quantitatively measured by spectrophotometry. […] The developed color density was then measured spectrophotometrically at 570 nm using the POLARstar Omega micro-plate reader (BMG Labtech, Inc., Cary, NC, USA)."}, "HT29 cells": {"tested_on": "HT29 cells", "test": "Cell cycle profile by FACS", "assay_type": "cell-based, human", "conditions": "2 mM HU 24 h", "procedure": "For determining the cell cycle profile, cells were plated in 60 mm tissue culture dishes and grown until 60% confluence. […] After treatment, cells were harvested at different time intervals, washed with ice-cold PBS and processed for FACS analysis as described previously. The ranges for G0/G1, S, and G2/M phase arrested and sub-G1 apoptotic cells were established on the basis of the corresponding DNA content of the histograms. At minimum, 10,000 cells were counted from each sample."}, "[3]": {"tested_on": "Chk1 phosphorylation in HT29 cells", "test": "Western blot of total and phosphorylated Chk1, HT29", "assay_type": "cell-based, human", "procedure": "(§2) The levels of various proteins were determined by Western blot analysis with our previously described procedure. The antibodies for phospho-Chk1(Ser317), phospho-Chk1(Ser317), phospho-Chk1(Ser319), phospho-Chk1(Ser345), Chk1, and GAPDH were purchased from Cell Signaling Technology (Danvers, MA, USA)."}, "[4]": {"tested_on": "Chk1 phosphorylation in HCT-116 cells", "test": "Western blot of total and phosphorylated Chk1, HCT-116", "assay_type": "cell-based, human", "conditions": "NSC49L alone, 24 h", "procedure": "as §2"}, "[5]": {"tested_on": "Chk1 phosphorylation in CA2 cells", "test": "Western blot of total and phosphorylated Chk1, CA2", "assay_type": "cell-based, human", "conditions": "NSC49L alone, 24 h", "procedure": "as §2"}, "HCT116(p53+/+) cells": {"tested_on": "HCT116(p53+/+) cells", "test": "MTT assay, IC50 of HU, HCT116(p53+/+)", "assay_type": "cell-based, human", "conditions": "HU combined with NSC49L, 72 h", "procedure": "as §1"}, "[6]": {"tested_on": "γH2AX(S139P)-foci in CA2 cells", "test": "γH2AX(S139P)-foci IHC staining, CA2", "assay_type": "cell-based, human", "conditions": "24 h"}, "[7]": {"test": "Pharmacokinetic analysis in CD1 mice", "assay_type": "in vivo, male CD1 mice", "conditions": "20 mg/kg body weight, IP, plasma", "procedure": "Pharmacokinetic analysis of NSC30049 in CD1 mice was determined by Pharmaron, Inc. (Louisville, KY, USA). Mice were injected intraperitoneally (IP) with NSC49L (20 mg/kg body weight) and approximately 0.04 ml blood was collected at 0, 5, 15 and 30 min, 1, 2, 4, 8 and 24 h time point. Blood of each sample was transferred into plastic micro-centrifuge tubes containing 2 μl of Heparin (1,000 IU). Samples were stored in a freezer at −75 ± 15°C prior to analysis. Concentrations of NSC49L in the plasma samples was analyzed using a LC-MS/MS method. WinNonlin® (Phoenix®, version 6.1) software was used for pharmacokinetic calculations. The following pharmacokinetic parameters were calculated from the plasma concentration versus time data: T1/2, Cmax, AUClast, AUCinf, AUCextra%, Number of Points for Regression. The pharmacokinetic data is described using mean ± standard deviation (SD) and n = 3."}, "[8]": {"conditions": "HU withdrawn, then 20 μM NSC49L 8 h"}, "[9]": {"conditions": "then 20 μM NSC49L additional 8 h in presence of HU"}, "[10]": {"conditions": "2 mM HU 24 h, then NSC49L 5, 10, 20 μM additional 8 h"}}}
{"smiles": "ClC/C=C/C[N+]12CN3CN(CN(C3)C1)C2", "note": "[NSC49L]", "values": [{"measurement": "IC50", "setting": "[1]", "value": "31.9 ± 0.9", "unit": "µM"}, {"measurement": "IC50", "setting": "SW480 cells", "value": "4.4 ± 0.2", "unit": "µM"}, {"measurement": "IC50", "setting": "RKO cells", "value": "4.9 ± 0.4", "unit": "µM"}, {"measurement": "IC50", "setting": "[2]", "value": 3.1, "unit": "µM"}, {"measurement": "Cell cycle distribution G2/M", "setting": "HT29 cells; [8]", "value": 26.1, "unit": "%"}, {"measurement": "Cell cycle distribution S (S-phase arrest)", "setting": "HT29 cells; [8]", "value": 50.6, "unit": "%"}, {"measurement": "Cell cycle distribution S (S-phase arrest)", "setting": "HT29 cells; [9]", "value": 39.7, "unit": "%"}, {"measurement": "Entry of G2/M-phase", "setting": "HT29 cells; [9]", "value": "complete blockage to the entry of G2/M-phase"}, {"measurement": "Chk1(S296P) levels", "setting": "[3]; [10]", "value": "increased at low concentrations of NSC49L (5 μM), but decreased at 10 and 20 μM concentrations"}, {"measurement": "Chk1(S317P) level", "setting": "[3]; [10]", "value": "decreased in a dose-dependent manner"}, {"measurement": "Chk1(S345P) level", "setting": "[3]; 2 mM HU 24 h, then NSC49L additional 8 h", "value": "increased above the HU treatment level in a dose-dependent manner"}, {"measurement": "Chk1 phosphorylation", "setting": "[3]; NSC49L alone, 8 h", "value": "did not show any significant effect"}, {"measurement": "Chk1(S317P) and Chk1(S296P) levels", "setting": "[4]", "value": "no effect"}, {"measurement": "Chk1(S345P) levels", "setting": "[4]", "value": "dose-dependent increase"}, {"measurement": "Chk1(S317P) and Chk1(S296P) levels", "setting": "[5]", "value": "very little change"}, {"measurement": "Chk1(S345P) level", "setting": "[5]", "value": "increase in a dose-dependent manner"}, {"measurement": "IC50 of HU", "setting": "HCT116(p53+/+) cells", "value": "further decreased"}, {"measurement": "γH2AX(S139P)-foci", "setting": "[6]; NSC49L alone", "value": "increased"}, {"measurement": "γH2AX(S139P)-foci", "setting": "[6]; NSC49L in combination with 5-FU", "value": "further increased"}, {"measurement": "AUC_%Extrap_obs", "setting": "[7]", "value": "0.187 ± 293", "unit": "%"}, {"measurement": "AUC(0-inf)", "setting": "[7]; male, CD1, mouse", "value": "1310 ± 89", "unit": "ng·h/mL"}, {"measurement": "AUC(0-t)", "setting": "[7]; male, CD1, mouse", "value": "1310 ± 86", "unit": "ng·h/mL"}, {"measurement": "Cmax", "setting": "[7]; male, CD1, mouse", "value": 5530, "unit": "ng/mL"}, {"measurement": "Tmax", "setting": "[7]; male, CD1, mouse", "value": 4.98, "unit": "min"}, {"measurement": "half-life", "setting": "[7]; male, CD1, mouse, n = 3", "value": "14 ± 5.88", "unit": "min"}, {"measurement": "AUC", "setting": "[7]; male, CD1, mouse, read-out: AUC (bioavailability)", "value": "1310 ± 86", "unit": "ng·h/mL"}]}
